# Results as given in PMC5626781, “A Potent Tartrate Resistant Acid Phosphatase Inhibitor to Study the Function of TRAP in Alveolar Macrophages” (Scientific Reports, 2017).
# Assays:
# [1] = system: RAW264.7 macrophages; assay: MTT assay; assay type: cell-based, mouse
# Protocol: The effect of AubipyOMe and NaAuCl4 on RAW264.7 cell growth was assessed with a classical MTT assay. The IC50 values were calculated using nonlinear curve fitting with a variable slope in Graphpad Prism 6 (Graphpad Software) An average IC50 of four independent experiments was calculated.
# AubipyOMe was tested in the range 0-40 μM with MPI cell lysates or pooled lung tissue lysates from COPD patients using a TRAP activity assay. MPI lysates were diluted 1:1 and COPD tissue lysates 1:20 with acetate buffer and incubated with increasing concentrations inhibitor, that were prepared from freshly made stock solutions (10 mM in DMSO) and diluted with acetate buffer. Lysates were incubated at 37° C for 30 min in the presence of PNPP solution (1:1 ratio). 1M NaOH was added to stop the reaction and absorption was measured at 410 nm with 490 nm as a reference value.
# (§1) The inhibitory effects of gold compounds were calculated as the ratio of absorbance between the treated and untreated wells. The IC50 values were calculated using nonlinear curve fitting with a variable slope in Graphpad Prism 6 (Graphpad Software, la Jolla, USA). An average IC50 of three independent experiments was calculated.
# The effect of AubipyOMe and NaAuCl4 on cell growth was assessed with a classical MTT assay.
# RAW264.7 macrophages were seeded in 96-well plates at a concentration of 10,000 cells/well and grown for 24h in complete medium. Compound dilutions were prepared in complete medium from a freshly prepared stock solution (10 mM in DMSO) and added to the wells (200 μl) to obtain a final concentration (0 to 100 μM). […] The optical density of each well was quantified in quadruplicate at 540 nm, using a multi-well plate reader, and the percentage of surviving cells was calculated from the ratio of absorbance between treated and untreated cells. The IC50 values were calculated using nonlinear curve fitting with a variable slope in Graphpad Prism 6 (Graphpad Software) An average
# [2] = system: RAW264.7 macrophages; assay: Transwell migration, osteopontin-coated membrane; assay type: cell-based, mouse; settings: AubipyOMe 80 nM, 5-PNA 100 μM
# Protocol: Migration of RAW264.7 macrophages was assessed using a transwell-culturing system with inserts (Sigma-Aldrich) coated with osteopontin (10 μg/ml, R&D). Bovine collagen-coated inserts (10 μg/ml, Advanced Biometrix, Carlsbad, USA) were used as matrix control. Cells were incubated with or without RANKL (200 ng/ml) for 72 hours to induce TRAP activity or not[75], in the presence or absence of AubipyOMe (80 nM) in quadruplicate. The previously described TRAP inhibitor 5-PNA (100 μM) was used as selective positive control for TRAP inhibition[15],[23]. The number of cells migrated to the lower well, including dead cells, was calculated relative to control cells and individual experiments were done at least six times. […]
# Transwell experiment to assess macrophage migration
# Migration of RAW264.7 macrophages was assessed using a transwell-culturing system with inserts (Sigma-Aldrich) coated with osteopontin (10 µg/ml, R&D). Bovine collagen-coated inserts (Advanced Biometrix, Carlsbad, USA) were used as a matrix control. RAW264.7 macrophages, pre-stimulated with 200 ng/ml RANKL for 72h to induce TRAP activity16, were seeded on 8 µm pore inserts coated with osteopontin (10 µg/ml, 250,000 cells/well) or collagen (10 μg/ml, 250,000 cells/well). Cells were cultured for 16h in the presence or absence of AubipyOMe (80 nM) in quadruplicate. The previously described TRAP inhibitor 5-PNA (100 µM) was used as selective positive control for TRAP inhibition12,17. The number of cells migrated to the lower well, including dead cells, was calculated relative to control cells and individual experiments were done at least six times. […]
# [3] = molecular target: T1, recombinant human TRAP5a (Homo sapiens, UniProt P13686); assay: TRAP activity assay (PNPP) with recombinant TRAP5a; assay type: biochemical; settings: pH 5, 30 min 37 °C, mean ± standard error, n = 3
# T1 construct: made in house
# T1 sequence (P13686 22-325): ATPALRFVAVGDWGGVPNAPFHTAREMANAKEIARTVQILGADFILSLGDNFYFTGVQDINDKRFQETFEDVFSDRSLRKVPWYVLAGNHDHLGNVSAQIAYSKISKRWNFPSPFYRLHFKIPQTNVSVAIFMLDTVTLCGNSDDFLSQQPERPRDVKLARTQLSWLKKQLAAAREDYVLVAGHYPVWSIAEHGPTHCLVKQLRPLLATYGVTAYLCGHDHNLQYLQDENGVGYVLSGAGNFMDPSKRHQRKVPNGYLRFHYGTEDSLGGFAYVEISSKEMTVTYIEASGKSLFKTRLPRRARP
# Protocol: Recombinant unspecified human TRAP was purchased from R&D (Minneapolis, USA). Recombinant human TRAP5a and 5b were produced and purified according to a protocol based on several sources[70]–[72] using an ÄKTApurifier™ 10 FPLC system (GE Healthcare, Danderyd, Sweden) as previously described.
# Inhibitor dilutions were prepared in acetate buffer from freshly prepared stock solutions (10 mM in DMSO). Recombinant unspecified TRAP (1.25 ng/ml, pH 4.5), TRAP5a (150 ng/mL, pH 5) or TRAP5b (150 ng/mL, pH 5.8) were incubated at 37 °C for 30 minutes with PNPP solution [10 mM PNPP, 200 mM sodium acetaat, 300 mM potassium chloride) at the indicated pH at a 1:1 ratio and increasing concentrations of NaAuCl4 (range 0–40 μM) or Au compounds (range 0–5.1 μM). To stop the reaction, 1M NaOH was added and absorption at 410 nm, with 490 nm as a reference value, was measured using a spectrophotometer.
# as §1
smiles,measurement,setting,value
"COc1ccnc(-c2cc(OC)ccn2)c1.F[P-](F)(F)(F)(F)F.[Cl][Au+][Cl] [AubipyOMe, [Au(4,4′-dimethoxy-2,2′-bipyridine)Cl2][PF6]]",IC50,"[1]; RAW264.7 macrophages, 72 h, n = 4, read-out: IC50 cytotoxicity",~35 µM
same,cytotoxic effects on RAW264.7 macrophages,[1]; at concentrations around the TRAP IC50 values,no cytotoxic effects
same,migration of RANKL-pretreated macrophages through osteopontin-coated membrane,"[2]; RANKL 200 ng/ml 72 h, versus RANKL alone",significantly less migration
same,"migration through osteopontin-coated membrane, inhibitor alone",[2]; no RANKL,did not affect migration
same,IC50,[3],1.3 ± 0.5 µM
